Biological target: human Nav1.7 (Homo sapiens (Human), UniProt Q15858)
Assay: FLIPR membrane potential dye assay (alternative fluorescence assay)
Format: cell-based
Conditions: recombinant Nav1.7/HEK293 cells
Procedure: In vitro assays were performed in a recombinant cell line expressing cDNA encoding the alpha subunit (Nav1.7, SCN9a, PN1, NE) of human Nav1.7 (Accession No. NM_002977). The cell line was provided by investigators at Yale University (Cummins et al, J. Neurosci. 18(23): 9607-9619 (1998)). For dominant selection of the Nav1.7-expressing clones, the expression plasmid co-expressed the neomycin resistance gene. The cell line was constructed in the human embryonic kidney cell line, HEK293, under the influence of the CMV […] promoter, and stable clones were selected using limiting dilution cloning and antibiotic selection using the neomycin analogue, G418. Recombinant beta and gamma subunits were not introduced into this cell line. Additional cell lines expressing recombinant Nav1.7 cloned from other species can also be used, alone or in combination with various beta subunits, gamma subunits or chaperones.
A fluorescence indicator that can be used in alternative fluorescence assays is the blue version membrane potential dye (MDS, Molecular Devices, Sunnyvale, Calif.), a dye that detects changes in molecules following a change in membrane potential. An increase in fluorescence is expected if agonist stimulation provokes a change in membrane potential. Cells expressing Nav1.7 or other sodium channels are incubated with the membrane potential dye 30-60 minutes before the fluorescence assay. In the case of the KCl pre-stimulation version of the assay, the dye and all other components are washed out immediately before the assay, and the dye is then replaced. In the version lacking KCl pre-stimulation, the dye remains on the cells and is not washed out or replaced. The dye is stored in the dark as a lyophilized powder, and then an aliquot dissolved in assay buffer to form a 20×-concentrated stock solution that can be used for several weeks.
In the fluorescence assays, two agonists were used in combination, namely 1) veratridine; and 2) the venom from the yellow scorpion, Leiurus quinquestriatus hebraeus. Veratridine is an alkaloid small molecule that facilitates the capture of channel openings by inhibiting inactivation, and the scorpion venom is a natural preparation that includes peptide toxins selective for different subsets of voltage-gated sodium channels. These scorpion toxins inhibit the fast inactivation of their cognate target channels. Stock solutions of the agonists were prepared to 40 mM in DMSO (veratridine) and 1 mg/mL in dH2O (scorpion venom), and then diluted to make a 4× or 2× stock (depending on the particular assay) in assay buffer, the final concentration being 100 μM (veratridine) and 10 μg/mL (scorpion venom). Both of the agonists were purchased from Sigma Aldrich, St. Louis, Mo.
Test compounds were dissolved in DMSO to yield 10 mM stock solutions. The stock solutions were further diluted using DMSO in 1:3 serial dilution steps with 10 points (10,000 μM, […], 370 μM, 123 μM, 41 μM, 14 μM, 4.6 μM, 1.5 μM and 0.5 μM). The stock solutions were further diluted in assay buffer (1:125) as 4× stock serial dilutions with a DMSO concentration of 0.8% (final [DMSO], in the assay, from the compounds component=0.2%), so that the compounds' final concentrations in the assay were 20 μM, 6.7 μM, 2.2 μM, 0.74 μM, 0.25 μM and 0.08 μM, 0.03 μM, 0.01 μM, 0.003 μM and 0.001 μM. If a particular test article appeared to be especially potent, then the concentration curve was adjusted, e.g., to 10-fold lower concentrations, in order to perform the dose-response in a more relevant concentration range. Compound dilutions were added during the dye-loading and pre-stimulation step, and then again during the fluorescence assay, early in the kinetic read.
The data were analyzed according to methods known to those skilled in the art or using the GraphPad® Prism Program, version 4.0 or higher (available from GraphPad Software, San Diego, Calif.) to determine the IC50 value for the test article. […]

Sequence of human Nav1.7 (Q15858 other isoform, or with tags, fused parts or gaps): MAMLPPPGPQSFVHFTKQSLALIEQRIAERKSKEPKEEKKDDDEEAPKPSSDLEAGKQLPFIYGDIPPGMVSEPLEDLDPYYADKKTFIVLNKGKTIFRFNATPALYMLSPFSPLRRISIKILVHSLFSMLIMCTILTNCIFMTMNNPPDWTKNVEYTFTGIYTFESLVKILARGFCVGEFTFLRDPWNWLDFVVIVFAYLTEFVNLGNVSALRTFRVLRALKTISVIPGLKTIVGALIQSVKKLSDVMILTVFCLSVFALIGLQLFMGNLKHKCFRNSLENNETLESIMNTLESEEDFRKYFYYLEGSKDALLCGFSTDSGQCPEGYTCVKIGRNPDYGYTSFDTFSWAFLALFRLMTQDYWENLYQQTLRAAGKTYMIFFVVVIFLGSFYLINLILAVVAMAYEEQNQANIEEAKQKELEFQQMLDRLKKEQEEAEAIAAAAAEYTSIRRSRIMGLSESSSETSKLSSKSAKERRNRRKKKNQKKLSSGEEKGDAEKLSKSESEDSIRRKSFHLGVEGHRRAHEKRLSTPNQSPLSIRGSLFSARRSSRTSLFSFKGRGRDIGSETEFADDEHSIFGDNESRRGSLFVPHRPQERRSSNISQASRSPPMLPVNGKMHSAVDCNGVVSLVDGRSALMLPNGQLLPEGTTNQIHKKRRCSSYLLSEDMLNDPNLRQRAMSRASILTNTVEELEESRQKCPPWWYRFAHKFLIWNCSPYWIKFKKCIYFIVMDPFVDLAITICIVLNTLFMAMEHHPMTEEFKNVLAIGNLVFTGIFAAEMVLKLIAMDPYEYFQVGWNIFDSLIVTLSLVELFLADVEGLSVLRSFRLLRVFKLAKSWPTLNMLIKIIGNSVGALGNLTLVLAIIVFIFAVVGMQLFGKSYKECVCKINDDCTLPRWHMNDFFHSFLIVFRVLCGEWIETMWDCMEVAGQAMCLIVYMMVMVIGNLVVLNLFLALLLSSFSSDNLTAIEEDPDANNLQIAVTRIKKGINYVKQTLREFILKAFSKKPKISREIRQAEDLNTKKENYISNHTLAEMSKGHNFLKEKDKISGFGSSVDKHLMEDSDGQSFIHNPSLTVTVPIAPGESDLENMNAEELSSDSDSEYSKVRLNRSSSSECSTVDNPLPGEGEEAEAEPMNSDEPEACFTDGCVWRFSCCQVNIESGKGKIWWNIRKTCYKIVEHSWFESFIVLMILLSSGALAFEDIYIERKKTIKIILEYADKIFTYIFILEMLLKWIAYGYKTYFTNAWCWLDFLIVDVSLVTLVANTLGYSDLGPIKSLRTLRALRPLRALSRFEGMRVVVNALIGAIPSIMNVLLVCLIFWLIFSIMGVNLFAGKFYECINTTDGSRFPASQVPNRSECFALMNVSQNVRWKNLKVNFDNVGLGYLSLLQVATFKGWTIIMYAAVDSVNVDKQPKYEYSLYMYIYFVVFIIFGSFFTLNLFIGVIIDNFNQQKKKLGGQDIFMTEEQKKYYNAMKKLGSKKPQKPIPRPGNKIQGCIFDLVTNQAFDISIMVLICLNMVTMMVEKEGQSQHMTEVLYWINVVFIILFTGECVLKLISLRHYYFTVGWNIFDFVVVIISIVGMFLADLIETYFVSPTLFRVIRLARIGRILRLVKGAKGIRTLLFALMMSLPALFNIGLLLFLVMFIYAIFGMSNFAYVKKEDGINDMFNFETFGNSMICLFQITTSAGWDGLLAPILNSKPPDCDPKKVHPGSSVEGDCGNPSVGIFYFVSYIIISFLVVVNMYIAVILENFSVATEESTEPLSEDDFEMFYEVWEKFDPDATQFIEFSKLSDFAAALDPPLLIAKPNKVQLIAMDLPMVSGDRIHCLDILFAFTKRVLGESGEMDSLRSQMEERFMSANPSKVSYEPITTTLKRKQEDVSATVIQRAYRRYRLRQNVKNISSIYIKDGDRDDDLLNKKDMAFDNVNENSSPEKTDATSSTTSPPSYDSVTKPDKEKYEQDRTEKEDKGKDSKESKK

Row | Structure (SMILES) | IC50 [µM]
1 | CCN(CC)Cc1cc(C(F)(F)F)ccc1Oc1ccc(-c2nc(C(N)=O)cc([C@@H](O)CO)n2)cc1 [compound 133, (R)-2-(4-(2-((diethylamino)methyl)-4-(trifluoromethyl)phenoxy)phenyl)-6-(1,2-dihydroxyethyl)pyrimidine-4-carboxamide] | 0.699 ± 0.045
2 | C[C@H](Nc1cc(C(N)=O)nc(-c2ccc(Oc3ccc(C(F)(F)F)cc3-c3cnc(N(C)C)cn3)cc2)n1)C(N)=O [compound 134, (S)-6-((1-amino-1-oxopropan-2-yl)amino)-2-(4-(2-(5-(dimethylamino)pyrazin-2-yl)-4-(trifluoromethyl)phenoxy)phenyl) pyrimidine-4-carboxamide] | 0.393 ± 0.048
3 | Cn1nccc1-c1cc(C(F)(F)F)ccc1Oc1ccc(-c2cc([C@H](O)CO)cc(C(N)=O)n2)cc1 [compound 135, (S)-4-(1,2-dihydroxythyl)-6-(4-(2-(1-methyl-1H-pyrazol-5-yl)-4-(trifluoromethyl)phenoxy)phenyl) picolinamide] | 0.294 ± 0.054
4 | NC(=O)c1cc([C@H](O)CO)cc(-c2ccc(Oc3ccc(Cl)cc3-c3ccnn3C3CNC3)cc2)n1 [compound 136, (S)-6-(4-(2-(1-(azetidin-3-yl)-1H-pyrazol-5-yl)-4-chlorophenoxy)phenyl)-4-(1,2-dihydroxyethyl)picolinamide] | > 20
5 | NC(=O)c1cc(N[C@H]2CCNC2=O)nc(-c2ccc(Oc3ccc(Cl)cc3-c3ccnn3C3CNC3)cc2)n1 [compound 137, (S)-2-(4-(2-(1-(azetidin-3-yl)-1H-pyrazol-5-yl)-4-chlorophenoxy)phenyl)-6-((2-oxopyrrolidin-3-yl)amino)pyrimidine-4-carboxamide] | > 20
6 | C[C@H](Nc1cc(C(N)=O)nc(-c2ccc(Oc3ccc(C(F)(F)F)cc3-c3ccnn3C)cc2)n1)C(N)=O [compound 138, (S)-6-((1-amino-1-oxopropan-2-yl)amino)-2-(4-(2-(1-methyl-1H-pyrazol-5-yl)-4-(trifluoromethyl)phenoxy)phenyl) pyrimidine-4-carboxamide] | 0.6 ± 0.077
7 | C[C@H](Nc1cc(C(N)=O)nc(-c2ccc(Oc3ccccc3-c3ccnn3C)cc2)n1)C(N)=O [compound 139, (S)-6-((1-amino-1-oxopropan-2-yl)amino)-2-(4-(2-(1-methyl-1H-pyrazol-5-yl)phenoxy)phenyl)-pyrimidine-4-carboxamide] | 10 to 20
8 | C[C@H](Nc1cc(C(N)=O)nc(-c2ccc(Oc3ccccc3-c3ccnn3C)cc2)n1)C(N)=O [compound 140, (S)-6-((1-amino-1-oxopropan-2-yl)amino)-2-(4-(2-(1-methyl-1H-pyrazol-5-yl)phenoxy)phenyl)-pyrimidine-4-carboxamide] | 4.23 ± 0.479
9 | Cn1nccc1-c1cc(Cl)ccc1Oc1ccc(-c2nc(N[C@H]3CCNC3=O)cc(C(N)=O)n2)cc1 [compound 141, (S)-2-(4-(4-chloro-2-(1-methyl-1H-pyrazol-5-yl)phenoxy)phenyl)-6-((2-oxopyrrolidin-3-yl)amino)-pyrimidine-4-carboxamide] | 0.45 ± 0.053
10 | O=C(NC[C@@H](O)CO)c1cc(C(F)(F)F)ccc1Oc1ccc(-c2cccc([C@H](O)CO)n2)cc1 [compound 167, 2-(4-(6-((S)-1,2-dihydroxyethyl)pyridin-2-yl)phenoxy)-N-((R)-2,3-dihydroxypropyl)-5-(trifluoromethyl)benzamide] | > 20
11 | CCN(CC)C(=O)c1cc(C(F)(F)F)ccc1Oc1ccc(-c2cccc([C@H](O)CO)n2)cc1 [compound 168, (S)-2-(4-(6-(1,2-dihydroxyethyl)pyridin-2-yl)phenoxy)-N,N-diethyl-5-(trifluoromethyl)benzamide] | 0.519 ± 0.083
12 | CCN(C)C(=O)c1cc(C(F)(F)F)ccc1Oc1ccc(-c2cccc([C@H](O)CO)n2)cc1 [compound 169, (S)-2-(4-(6-(1,2-dihydroxy-ethyl)pyridin-2-yl)phenoxy)-N-ethyl-N-methyl-5-(trifluoro-methyl)benzamide] | 1.55 ± 0.286
13 | O=C(c1cc(C(F)(F)F)ccc1Oc1ccc(-c2cccc([C@H](O)CO)n2)cc1)N1CC[C@H](O)C1 [compound 170, (2-(4-(6-((S)-1,2-dihydroxyethyl)pyridin-2-yl)phenoxy)-5-(trifluoromethyl)phenyl)((S)-3-hydroxypyrrolidin-1-yl)methanone] | > 20
14 | CCN(CCO)C(=O)c1cc(C(F)(F)F)ccc1Oc1ccc(-c2cccc([C@H](O)CO)n2)cc1 [compound 171, (S)-2-(4-(6-(1,2-dihydroxyethyl)pyridin-2-yl)phenoxy)-N-ethyl-N-(2-hydroxyethyl)-5-(trifluoro-methyl)benzamide] | > 20
15 | CCN(CCN(C)C)C(=O)c1cc(C(F)(F)F)ccc1Oc1ccc(-c2cccc([C@H](O)CO)n2)cc1 [compound 172, (S)-2-(4-(6-(1,2-dihydroxyethyl)pyridin-2-yl)phenoxy)-N-(2-(dimethyl-amino)ethyl)-N-ethyl-5-(trifluoromethyl)benzamide] | 7.97 ± 1.19
16 | NC(=O)C1CCCN(C(=O)c2cc(C(F)(F)F)ccc2Oc2ccc(-c3cccc([C@H](O)CO)n3)cc2)C1 (stereo partly drawn) [compound 173, 1-(2-(4-(6-((S)-1,2-dihydroxyethyl)pyridin-2-yl)phenoxy)-5-(trifluoromethyl)benzoyl)piperidine-3-carboxamide] | > 20
17 | O=C(Nc1nncs1)c1cc(C(F)(F)F)ccc1Oc1ccc(-c2cccc([C@H](O)CO)n2)cc1 [compound 174, (S)-2-(4-(6-(1,2-dihydroxyethyl)pyridin-2-yl)phenoxy)-N-(1,3,4-thiadiazol-2-yl)-5-(trifluoromethyl)-benzamide] | 3.61 ± 0.229
18 | O=C(Nc1nccs1)c1cc(C(F)(F)F)ccc1Oc1ccc(-c2cccc([C@H](O)CO)n2)cc1 [compound 175, (S)-2-(4-(6-(1,2-dihydroxyethyl)pyridin-2-yl)phenoxy)-N-(thiazol-2-yl)-5-(trifluoromethyl)benzamide] | 1.31 ± 0.054
19 | O=C(NCc1nnn[nH]1)c1cc(C(F)(F)F)ccc1Oc1ccc(-c2cccc([C@H](O)CO)n2)cc1 [compound 176, (S)-N-((1H-tetrazol-5-yl)methyl)-2-(4-(6-(1,2-dihydroxyethyl)-pyridin-2-yl)phenoxy)-5-(trifluoromethyl)benzamide] | > 20
